Structures are written as SMILES. Active and inactive are the calls of the source. Where only a bound is given, the exact number is not on record here.

The EC50 is the concentration at which the effect is half-maximal. For orientation: IC50 means the concentration needed to halve the response being measured.

Test [1] has as its target T1, Mucolipin-3 (Homo sapiens, UniProt Q8TDD5).
T1 sequence (Q8TDD5 whole entry): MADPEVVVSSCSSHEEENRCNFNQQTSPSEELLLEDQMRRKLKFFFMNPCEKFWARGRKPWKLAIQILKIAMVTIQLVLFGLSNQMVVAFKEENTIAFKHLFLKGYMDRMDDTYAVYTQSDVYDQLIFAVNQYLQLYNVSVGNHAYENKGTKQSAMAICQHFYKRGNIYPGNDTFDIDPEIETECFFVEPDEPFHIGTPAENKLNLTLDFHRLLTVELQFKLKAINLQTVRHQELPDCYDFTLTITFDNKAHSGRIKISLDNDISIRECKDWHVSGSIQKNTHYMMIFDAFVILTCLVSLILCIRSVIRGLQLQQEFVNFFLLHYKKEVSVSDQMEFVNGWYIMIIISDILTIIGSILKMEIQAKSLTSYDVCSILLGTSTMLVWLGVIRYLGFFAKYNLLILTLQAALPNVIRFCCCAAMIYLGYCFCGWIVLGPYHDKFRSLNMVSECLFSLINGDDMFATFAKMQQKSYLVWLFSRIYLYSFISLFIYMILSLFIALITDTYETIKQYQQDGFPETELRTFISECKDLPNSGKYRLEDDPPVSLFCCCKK
Description: Fluorescence counterscreen assay for […] agonists: dose response cell-based high-throughput screening assay to identify agonists of the transient receptor potential channel ML3 (TRPML3). [Related pubchem assays: 1424, 1448 ]. The test is classed as functional. A general note: A counterscreen serves to expose hits that act by an unwanted route or on another target.

In test [2] the target is Ion channel NompC (Danio rerio, UniProt Q7T1G6). Description: Dose response cell-based high-throughput screening assay for agonists of the transient receptor potential channel N1 (TRPN1). [Related pubchem assays (depositor defined):AID1424, AID1448]. It counts as functional.
The target in test [3] is T2, Voltage-gated N-type calcium channel alpha-1B subunit/Amyloid beta A4 precursor protein-binding family A member 1 (Homo sapiens, UniProt Q00975+Q02410). It counts as protein assay.
The target of test [4] is NS3 (Hepatitis C virus, UniProt A3EZJ3). Description: PubChem AID 2173. Also noted: species or system Hepacivirus hominis.
In test [5] the target is T2, Voltage-gated N-type calcium channel alpha-1B subunit/Amyloid beta A4 precursor protein-binding family A member 1. The test is classed as protein assay. The source holds these as a separate data set.
Test [6] addresses T3, G-protein coupled receptor 35 (Homo sapiens, UniProt Q9HC97). Description: SAR analysis of Agonists of the GPR35 Receptor using an Image-Based Assay - Set 3. [Related pubchem assays (depositor defined):AID1961, AID1965]. The test is classed as functional.
Test [7] concerns the target T4, Cannabinoid receptor 1 (Homo sapiens, UniProt P21554). The test can be described thus: SAR analysis of antagonists of the Cannabinoid Receptor 1 using an Image-Based Assay - Set 3. [Related pubchem assays (depositor defined):AID1961, AID1965]. The test is classed as functional.
Test [8] addresses T3, G-protein coupled receptor 35. The test can be described thus: SAR analysis of Antagonists of the GPR35 Receptor using an Image-Based Assay - Set 4. [Related pubchem assays (depositor defined):[…]]. The test is classed as functional.
For test [9], the target named is T5, Cannabinoid receptor 2 (Homo sapiens, UniProt P34972). The test can be described thus: SAR analysis of antagonists of the Cannabinoid Receptor 2 using an Image-Based Assay - Set 2. [Related pubchem assays (depositor defined):AID1961, AID1965]. It counts as functional.
The target in test [10] is T5, Cannabinoid receptor 2. Description: SAR analysis of agonists of the Cannabinoid Receptor 2 using an Image-Based Assay - Set 2. [Related pubchem assays (depositor defined):AID1961, AID1965]. The test is classed as functional.
For test [11], the target named is G-protein coupled receptor 55 (Homo sapiens, UniProt Q9Y2T6). Description: SAR analysis of selective Agonists of GPR55 using an Image-Based Assay - Set 2. [Related pubchem assays (depositor defined):AID1961, AID1965]. It counts as functional.
The target in test [12] is T4, Cannabinoid receptor 1. The test can be described thus: SAR analysis of agonists of the Cannabinoid Receptor 1 using an Image-Based Assay - Set 3. [Related pubchem assays (depositor defined):AID1961, AID1965]. It counts as functional.
Test [13] addresses Tumor necrosis factor (Homo sapiens, UniProt P01375). The test can be described thus: TNFa-triggered NF-kB activation inhibitors, SAR follow-up, cell-based, revised (AID 2337). The test is classed as functional.
The test system of test [14] is HEK293. Description: cells. Particulars: Homo sapiens.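 Note: cells exposed to compound for 14 hours overnight before viability readout.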

T5 sequence (P34972 whole entry): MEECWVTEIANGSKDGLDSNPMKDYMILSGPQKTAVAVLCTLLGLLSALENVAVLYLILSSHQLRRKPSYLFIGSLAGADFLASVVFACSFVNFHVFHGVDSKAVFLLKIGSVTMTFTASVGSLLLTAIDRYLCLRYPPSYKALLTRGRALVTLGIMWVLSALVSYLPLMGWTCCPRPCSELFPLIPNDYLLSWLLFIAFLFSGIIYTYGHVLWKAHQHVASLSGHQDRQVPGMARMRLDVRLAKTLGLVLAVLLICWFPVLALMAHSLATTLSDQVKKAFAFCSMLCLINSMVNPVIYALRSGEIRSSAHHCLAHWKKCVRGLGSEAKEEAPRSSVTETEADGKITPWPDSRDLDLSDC
T4 sequence (P21554 whole entry): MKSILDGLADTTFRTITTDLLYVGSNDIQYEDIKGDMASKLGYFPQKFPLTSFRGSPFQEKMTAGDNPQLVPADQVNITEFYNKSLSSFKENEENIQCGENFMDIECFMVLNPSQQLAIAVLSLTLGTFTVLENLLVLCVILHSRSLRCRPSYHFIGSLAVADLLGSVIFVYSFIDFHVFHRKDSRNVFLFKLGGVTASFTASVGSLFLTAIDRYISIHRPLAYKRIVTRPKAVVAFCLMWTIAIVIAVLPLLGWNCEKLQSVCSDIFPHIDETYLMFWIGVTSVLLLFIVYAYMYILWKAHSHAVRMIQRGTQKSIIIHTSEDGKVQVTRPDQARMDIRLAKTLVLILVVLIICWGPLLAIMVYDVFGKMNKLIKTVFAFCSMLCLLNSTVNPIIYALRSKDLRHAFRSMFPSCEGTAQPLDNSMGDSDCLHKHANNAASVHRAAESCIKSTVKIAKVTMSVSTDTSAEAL
T3 sequence (Q9HC97 whole entry): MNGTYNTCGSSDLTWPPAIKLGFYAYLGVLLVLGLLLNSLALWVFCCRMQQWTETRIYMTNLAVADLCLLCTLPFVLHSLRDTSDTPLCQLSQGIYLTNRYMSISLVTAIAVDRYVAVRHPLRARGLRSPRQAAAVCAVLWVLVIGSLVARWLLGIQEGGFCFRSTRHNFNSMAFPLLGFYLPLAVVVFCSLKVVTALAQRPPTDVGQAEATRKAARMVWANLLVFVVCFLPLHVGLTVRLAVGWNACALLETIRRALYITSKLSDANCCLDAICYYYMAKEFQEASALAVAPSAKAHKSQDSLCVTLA
T2 sequence (Q00975 whole entry): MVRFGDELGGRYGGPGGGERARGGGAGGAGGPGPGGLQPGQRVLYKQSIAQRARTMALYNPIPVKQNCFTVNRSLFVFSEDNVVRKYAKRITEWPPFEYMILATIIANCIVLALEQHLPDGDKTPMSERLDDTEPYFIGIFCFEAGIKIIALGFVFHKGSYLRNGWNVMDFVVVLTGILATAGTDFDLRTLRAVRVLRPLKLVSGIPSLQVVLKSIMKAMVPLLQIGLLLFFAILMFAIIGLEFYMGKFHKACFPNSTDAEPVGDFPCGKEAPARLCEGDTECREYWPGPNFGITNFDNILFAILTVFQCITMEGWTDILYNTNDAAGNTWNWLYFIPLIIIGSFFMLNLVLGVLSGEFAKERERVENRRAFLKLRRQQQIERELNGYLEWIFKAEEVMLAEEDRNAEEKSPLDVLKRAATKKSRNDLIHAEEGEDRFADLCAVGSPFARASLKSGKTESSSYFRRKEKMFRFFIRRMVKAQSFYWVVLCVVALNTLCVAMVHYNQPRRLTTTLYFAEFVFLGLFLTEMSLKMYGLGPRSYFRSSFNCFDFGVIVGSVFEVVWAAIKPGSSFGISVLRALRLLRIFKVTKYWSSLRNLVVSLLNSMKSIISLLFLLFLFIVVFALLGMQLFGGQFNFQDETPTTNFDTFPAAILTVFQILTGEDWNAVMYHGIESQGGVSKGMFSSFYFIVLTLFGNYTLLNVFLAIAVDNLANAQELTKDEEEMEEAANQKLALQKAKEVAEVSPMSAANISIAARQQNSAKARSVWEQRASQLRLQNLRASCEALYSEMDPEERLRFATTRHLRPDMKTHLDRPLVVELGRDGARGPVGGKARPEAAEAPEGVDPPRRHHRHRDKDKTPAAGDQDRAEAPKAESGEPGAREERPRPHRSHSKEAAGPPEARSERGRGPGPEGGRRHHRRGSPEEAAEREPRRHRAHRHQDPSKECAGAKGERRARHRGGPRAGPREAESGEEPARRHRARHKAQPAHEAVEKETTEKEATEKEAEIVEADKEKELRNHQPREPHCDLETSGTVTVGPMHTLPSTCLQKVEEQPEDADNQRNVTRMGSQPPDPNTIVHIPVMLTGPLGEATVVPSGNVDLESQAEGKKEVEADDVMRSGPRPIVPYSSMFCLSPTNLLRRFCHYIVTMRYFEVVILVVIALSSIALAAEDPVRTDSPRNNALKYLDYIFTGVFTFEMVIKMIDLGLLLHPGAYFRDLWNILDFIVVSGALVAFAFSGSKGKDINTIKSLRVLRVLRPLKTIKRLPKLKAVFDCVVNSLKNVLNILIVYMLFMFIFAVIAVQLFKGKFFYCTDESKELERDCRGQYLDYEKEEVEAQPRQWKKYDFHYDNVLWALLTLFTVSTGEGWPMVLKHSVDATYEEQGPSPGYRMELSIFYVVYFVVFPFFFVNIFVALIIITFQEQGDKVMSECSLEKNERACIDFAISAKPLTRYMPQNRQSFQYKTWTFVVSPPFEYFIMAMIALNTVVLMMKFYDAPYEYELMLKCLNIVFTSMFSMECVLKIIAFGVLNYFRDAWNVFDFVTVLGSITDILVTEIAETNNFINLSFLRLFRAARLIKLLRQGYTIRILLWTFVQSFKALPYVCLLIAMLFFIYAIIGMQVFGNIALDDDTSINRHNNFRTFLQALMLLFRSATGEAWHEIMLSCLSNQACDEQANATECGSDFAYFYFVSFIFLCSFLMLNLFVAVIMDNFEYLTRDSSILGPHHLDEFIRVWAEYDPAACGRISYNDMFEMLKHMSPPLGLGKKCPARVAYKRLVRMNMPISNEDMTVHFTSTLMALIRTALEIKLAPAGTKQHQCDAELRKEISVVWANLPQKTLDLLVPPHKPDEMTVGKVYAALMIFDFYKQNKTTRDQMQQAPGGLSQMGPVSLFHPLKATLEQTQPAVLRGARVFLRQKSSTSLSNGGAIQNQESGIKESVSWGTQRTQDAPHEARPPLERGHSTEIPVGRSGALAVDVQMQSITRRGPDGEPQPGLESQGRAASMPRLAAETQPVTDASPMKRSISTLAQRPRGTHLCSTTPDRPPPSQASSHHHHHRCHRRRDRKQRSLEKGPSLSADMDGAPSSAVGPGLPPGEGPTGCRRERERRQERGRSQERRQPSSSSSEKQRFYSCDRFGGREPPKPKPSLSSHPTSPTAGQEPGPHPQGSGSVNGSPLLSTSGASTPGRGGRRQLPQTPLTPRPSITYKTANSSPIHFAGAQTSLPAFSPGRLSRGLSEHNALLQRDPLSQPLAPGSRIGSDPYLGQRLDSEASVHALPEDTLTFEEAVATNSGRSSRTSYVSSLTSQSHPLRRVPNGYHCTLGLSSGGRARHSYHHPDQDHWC
T2 sequence (Q02410 whole entry): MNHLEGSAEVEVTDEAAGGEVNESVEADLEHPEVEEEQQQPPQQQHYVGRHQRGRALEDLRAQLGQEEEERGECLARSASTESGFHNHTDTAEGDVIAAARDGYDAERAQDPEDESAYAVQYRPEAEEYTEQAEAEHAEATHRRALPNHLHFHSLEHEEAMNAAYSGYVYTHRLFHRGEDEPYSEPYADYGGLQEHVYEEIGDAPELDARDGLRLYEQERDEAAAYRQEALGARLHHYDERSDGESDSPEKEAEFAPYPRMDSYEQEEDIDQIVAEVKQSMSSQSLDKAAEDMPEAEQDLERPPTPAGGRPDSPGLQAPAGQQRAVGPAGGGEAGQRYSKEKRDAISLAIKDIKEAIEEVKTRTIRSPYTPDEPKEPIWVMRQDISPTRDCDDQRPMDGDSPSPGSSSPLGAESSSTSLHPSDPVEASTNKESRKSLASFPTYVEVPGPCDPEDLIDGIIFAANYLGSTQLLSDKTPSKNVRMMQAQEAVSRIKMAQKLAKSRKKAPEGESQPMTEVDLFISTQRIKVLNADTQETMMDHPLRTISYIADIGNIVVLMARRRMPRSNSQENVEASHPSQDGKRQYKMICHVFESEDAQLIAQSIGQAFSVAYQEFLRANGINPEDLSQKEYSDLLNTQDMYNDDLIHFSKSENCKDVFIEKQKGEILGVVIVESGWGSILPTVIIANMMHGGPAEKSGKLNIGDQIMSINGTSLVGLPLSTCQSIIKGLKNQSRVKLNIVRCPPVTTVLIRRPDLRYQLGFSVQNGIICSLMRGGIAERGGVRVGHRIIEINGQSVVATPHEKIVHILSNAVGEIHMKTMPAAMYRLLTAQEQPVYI
Sequence of G-protein coupled receptor 55 (Q9Y2T6 whole entry): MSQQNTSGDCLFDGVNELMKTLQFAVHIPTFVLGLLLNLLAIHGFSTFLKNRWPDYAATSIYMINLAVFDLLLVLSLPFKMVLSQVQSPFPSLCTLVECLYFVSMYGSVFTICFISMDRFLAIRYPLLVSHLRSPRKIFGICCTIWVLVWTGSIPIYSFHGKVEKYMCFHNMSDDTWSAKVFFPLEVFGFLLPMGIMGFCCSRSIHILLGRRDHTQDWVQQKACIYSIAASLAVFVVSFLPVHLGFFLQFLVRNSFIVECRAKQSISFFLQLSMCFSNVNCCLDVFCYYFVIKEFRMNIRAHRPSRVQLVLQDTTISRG
Sequence of Tumor necrosis factor (P01375 whole entry): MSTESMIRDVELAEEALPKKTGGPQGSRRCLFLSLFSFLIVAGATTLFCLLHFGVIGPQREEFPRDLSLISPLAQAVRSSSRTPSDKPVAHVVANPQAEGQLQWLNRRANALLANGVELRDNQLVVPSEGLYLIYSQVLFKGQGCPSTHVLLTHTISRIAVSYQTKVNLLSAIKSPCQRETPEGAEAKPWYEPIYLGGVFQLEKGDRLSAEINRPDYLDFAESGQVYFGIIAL

Regarding `Cc1ccc(NS(=O)(=O)c2ccc(C(=O)OCC(=O)Nc3cc(C)on3)cc2)cc1`, the EC50 is > 29.9 µM (not active) in test [1] and > 29.9 µM (inactive) in test [2].

As to `Cc1ccc(C2CC(=O)N3CN(c4ccc(Br)cc4)CSC3=C2C#N)o1` (stereo unspecified), the IC50 in [3] was 14 µM (active); in test [4] it was 7.09 µM (active); in test [5] it was 9.58 µM (active).

`O=C(Nc1cc(S(=O)(=O)N2CCOCC2)ccc1OCC(F)(F)F)c1ccc(N2CCCC2=O)cc1`: the EC50 in test [6], in [10], in test [11] and in [12] was > 32 µM (inactive) throughout. Further, the IC50 in [7], in test [8] and in test [9] was > 32 µM (inactive) throughout.

As for `CC(=O)N1CCc2cc(S(=O)(=O)N3CCN(c4ccc([N+](=O)[O-])cc4)CC3)ccc21`, the IC50 in test [13] and in test [14] was > 20 µM (inactive) in each case.

As for `CCOc1ccc(S(=O)(=O)N2CCOCC2)cc1NC(=O)c1ccc(N2CCCC2=O)cc1`, the EC50 in [6], in test [10], in test [11] and in [12] was > 32 µM (inactive) in each case. In addition, the results for the IC50 in test [7], in test [8] and in test [9] were 4.98 µM (active), > 32 µM (inactive) and > 32 µM (inactive), respectively.

The values above are taken from ChEMBL document CHEMBL1201862, “PubChem BioAssay data set” (2004).
